Laboratory results as given in US20110217713A1 (On-Q-ity, priority 2010, published 2011).

System: non-small cell lung cancer patient specimens (adenocarcinomas and squamous cell carcinoma)
Assay: International Adjuvant Lung Trial (IALT): cisplatin-based therapy vs observation, DFS/OS against IHC DNA repair biomarker Q-scores (Cox PH models)
Format: in vivo, human
Description: An immunohistochemical evaluation of DNA Repair Proteins was conducted on a large international patient specimen collection from the IALT trial (International Adjuvant Lung Trial). This clinical trial originally comprised approximately 1867 non-small cell lung cancer patient specimens (adenocarcinomas and squamous cell carcinoma) and was designed to test clinical parameters for patients receiving either cisplatin-based therapy or those considered observation. One problem with testing of biomarkers in general from clinical trials is that the patient population treatments are generally a mixture of several different treatments and combinations of such and so results may be confounded by interactions of various treatments. However, the IALT trial represents pristine treatment arms of cisplatin and observation and thus is relatively free of confounding affects due to treatment variation.
International Adjuvant Lung Cancer Trial (IALT) NSCLC FFPE patient specimens constructed on TMAs (13 total) were stained by IHC for DNA repair biomarkers: ATM, MSH2, ERCC1, p53, pMK2, PARP1, BRCA1, XPF. An average of 603 patients were analyzed for each biomarker. Tumor biomarker nuclear or cytoplasmic levels were determined using digital image user defined macros. Scores were generated based on weighted intensity and quantity of stained cells. In reference to accompanying diagrams in the Powerpoint files, please note that a wide dynamic range achieved during assay development and optimization in commercially available TMAs is translationally achieved when patients comprising this study population are stained, annotated for tumor region and scored by user-defined macros.
Previous studies have utilized standard pathologist-based scoring, thus we chose to optimize the IHC-based assessment of biomarker levels using digital pathology and weighted scoring. This endeavor is undertaken so that for a given population a continuum of scores (herein referred to as Q-scores) with a broad dynamic range may be generated by user defined macros. Here, scoring of individual tumor cells comprising each patient specimen is generated and then patients assembled into a population continuum of scores against which finer cut-points may tested and established rather than crude binning methods as employed in previous studies.
Q-score=10*(% of 10+cells)+9*(% of 9+cells)+8*(% of 8+cells)+7*(% of 7+cells) . . . 1*(% of 1+cells)
Cox PH models adjusted for relevant clinical and stratification variables were used in the univariate analyses of Disease-Free Survival (DFS) and Overall Survival (OS). Initial analyses were conducted using biomarker Q scores as continuous variables against clinical endpoint metrics.

[1] = ATM model, ADENOCARCINOMA, With adjustment variables
[2] = ATM model, ADENOCARCINOMA, With selected variables
[3] = ATM model, ADENOCARCINOMA, Without variables
[4] = ATM model, SQUAMOUS CELLS, With adjustment variables
[5] = ATM model, SQUAMOUS CELLS, With selected variables
[6] = ATM model, SQUAMOUS CELLS, Without variables
[7] = BRCA1 model, ADENOCARCINOMA, With adjustment variables
[8] = BRCA1 model, ADENOCARCINOMA, With selected variables
[9] = BRCA1 model, ADENOCARCINOMA, Without variables
[10] = BRCA1 model, SQUAMOUS CELLS, With adjustment variables
[11] = BRCA1 model, SQUAMOUS CELLS, With selected variables
[12] = BRCA1 model, SQUAMOUS CELLS, Without variables
[13] = Cox PH model with PMK2MC, with adjustment variables, histology heading not shown
[14] = Disease Free Survival, MEAN Q SCORE OF PMK2 CYTOPLASM DIVIDED BY NUCLEAR, Adenocarcinoma, With selected variables
[15] = Disease Free Survival, MEAN Q SCORE OF PMK2 CYTOPLASM DIVIDED BY NUCLEAR, Adenocarcinoma, Without variables
[16] = Disease Free Survival, MEAN Q SCORE PMK2 CYTOPLASM, Adenocarcinoma, With adjustment variables
[17] = Disease Free Survival, MEAN Q SCORE PMK2 CYTOPLASM, Adenocarcinoma, With selected variables
[18] = Disease Free Survival, MEAN Q SCORE PMK2 CYTOPLASM, Adenocarcinoma, Without variables
[19] = Disease Free Survival, MEAN Q SCORE PMK2 CYTOPLASM, Squamous Cells, With adjustment variables
[20] = Disease Free Survival, MEAN Q SCORE PMK2 CYTOPLASM, Squamous Cells, With selected variables
[21] = Disease Free Survival, MEAN Q SCORE PMK2 CYTOPLASM, Squamous Cells, Without variables
[22] = Disease Free Survival, MEAN Q SCORE PMK2 NUCLEAR, Adenocarcinoma, With adjustment variables
[23] = Disease Free Survival, MEAN Q SCORE PMK2 NUCLEAR, Adenocarcinoma, With selected variables
[24] = Disease Free Survival, MEAN Q SCORE PMK2 NUCLEAR, Adenocarcinoma, Without variables
[25] = Disease Free Survival, MEAN Q SCORE PMK2 NUCLEAR, Squamous Cells, With adjustment variables
[26] = Disease Free Survival, MEAN Q SCORE PMK2 NUCLEAR, Squamous Cells, With selected variables
[27] = Disease Free Survival, MEAN Q SCORE PMK2 NUCLEAR, Squamous Cells, Without variables
[28] = Disease Free Survival, MEAN Q SCORE SUM OF PMK2 CYTOPLASM & NUCLEAR, Adenocarcinoma, With adjustment variables
[29] = Disease Free Survival, MEAN Q SCORE SUM OF PMK2 CYTOPLASM & NUCLEAR, Adenocarcinoma, With selected variables
[30] = Disease Free Survival, MEAN Q SCORE SUM OF PMK2 CYTOPLASM & NUCLEAR, Adenocarcinoma, Without variables
[31] = Disease Free Survival, MEAN Q SCORE SUM OF PMK2 CYTOPLASM & NUCLEAR, Squamous Cells, With adjustment variables
[32] = Disease Free Survival, MEAN Q SCORE SUM OF PMK2 CYTOPLASM & NUCLEAR, Squamous Cells, With selected variables
[33] = Disease Free Survival, MEAN Q SCORE SUM OF PMK2 CYTOPLASM & NUCLEAR, Squamous Cells, Without variables
[34] = ERCC1 model, ADENOCARCINOMA, With adjustment variables

Question: `N.N.[Cl][Pt][Cl]` [cisplatin] was tested. Which “HazardRatio, ATM_Treatment” value [1] did it give?
Answer: Its value is 0.941.

Question: And the “HazardRatio, Treatment” value [1]?
Answer: The value was 1.033.

Question: And the “HazardRatio, ATM_Treatment” value [2]?
Answer: Its value is 0.993.

Question: And the “HazardRatio, Treatment” value [2]?
Answer: The value was 1.004.

Question: And the “HazardRatio, ATM_Treatment” value [3]?
Answer: The value was 0.972.

Question: What about the “HazardRatio, Treatment” value [3] of the same compound?
Answer: The value was 1.142.

Question: And the “HazardRatio, ATM_Treatment” value [4]?
Answer: Its value is 1.172.

Question: And the “HazardRatio, Treatment” value [4]?
Answer: The value was 0.625.

Question: And the “HazardRatio, ATM_Treatment” value [5]?
Answer: Its value is 1.172.

Question: What about the “HazardRatio, Treatment” value [5] of the same compound?
Answer: The value was 0.640.

Question: And the “HazardRatio, ATM_Treatment” value [6]?
Answer: The value was 1.148.

Question: What about the “HazardRatio, Treatment” value [6] of the same compound?
Answer: The value was 0.659.

Question: And the “HazardRatio, BRCA1_Treatment” value [7]?
Answer: Its value is 1.022.

Question: What about the “HazardRatio, Treatment” value [7] of the same compound?
Answer: The value was 0.895.

Question: And the “HazardRatio, BRCA1_Treatment” value [8]?
Answer: Its value is 1.027.

Question: What about the “HazardRatio, Treatment” value [8] of the same compound?
Answer: The value was 0.954.

Question: What about the “HazardRatio, BRCA1_Treatment” value [9] of the same compound?
Answer: Its value is 0.844.

Question: And the “HazardRatio, Treatment” value [9]?
Answer: Its value is 1.391.

Question: And the “HazardRatio, BRCA1_Treatment” value [10]?
Answer: The value was 1.043.

Question: What about the “HazardRatio, Treatment” value [10] of the same compound?
Answer: The value was 0.819.

Question: What about the “HazardRatio, BRCA1_Treatment” value [11] of the same compound?
Answer: Its value is 1.048.

Question: What about the “HazardRatio, Treatment” value [11] of the same compound?
Answer: The value was 0.831.

Question: And the “HazardRatio, BRCA1_Treatment” value [12]?
Answer: Its value is 1.028.

Question: What about the “HazardRatio, Treatment” value [12] of the same compound?
Answer: Its value is 0.852.

Question: And the “HazardRatio, PMK2MC_Treatment interaction (Disease Free Survival)” value [13]?
Answer: Its value is 1.244.

Question: And the “HazardRatio, Treatment (Disease Free Survival)” value [13]?
Answer: The value was 0.787.

Question: And the “HazardRatio, Treatment” value (Disease Free Survival, MEAN Q SCORE OF PMK2 CYTOPLASM DIVIDED BY NUCLEAR, Adenocarcinoma, With adjustment variables)?
Answer: Its value is 0.790.

Question: And the “HazardRatio, PMK2MCNp_Treatment” value [14]?
Answer: The value was 31E22.

Question: What about the “HazardRatio, Treatment” value [14] of the same compound?
Answer: Its value is 0.827.

Question: And the “HazardRatio, PMK2MCNp_Treatment” value [15]?
Answer: The value was 263.6.

Question: And the “HazardRatio, Treatment” value [15]?
Answer: Its value is 0.997.

Question: And the “HazardRatio, Treatment” value (Disease Free Survival, MEAN Q SCORE OF PMK2 CYTOPLASM DIVIDED BY NUCLEAR, Squamous Cells, With adjustment variables)?
Answer: Its value is 0.643.

Question: And the “HazardRatio, Treatment” value (Disease Free Survival, MEAN Q SCORE OF PMK2 CYTOPLASM DIVIDED BY NUCLEAR, Squamous Cells, With selected variables)?
Answer: Its value is 0.681.

Question: And the “HazardRatio, Treatment” value (Disease Free Survival, MEAN Q SCORE OF PMK2 CYTOPLASM DIVIDED BY NUCLEAR, Squamous Cells, Without variables)?
Answer: The value was 0.755.

Question: What about the “HazardRatio, PMK2MC_Treatment” value [16] of the same compound?
Answer: Its value is 1.163.

Question: What about the “HazardRatio, Treatment” value [16] of the same compound?
Answer: The value was 0.862.

Question: What about the “HazardRatio, PMK2MC_Treatment” value [17] of the same compound?
Answer: The value was 1.096.

Question: What about the “HazardRatio, Treatment” value [17] of the same compound?
Answer: The value was 0.874.

Question: And the “HazardRatio, PMK2MC_Treatment” value [18]?
Answer: The value was 0.647.

Question: And the “HazardRatio, Treatment” value [18]?
Answer: The value was 1.173.

Question: What about the “HazardRatio, PMK2MC_Treatment” value [19] of the same compound?
Answer: The value was 1.206.

Question: And the “HazardRatio, Treatment” value [19]?
Answer: Its value is 0.804.

Question: What about the “HazardRatio, PMK2MC_Treatment” value [20] of the same compound?
Answer: The value was 1.203.

Question: And the “HazardRatio, Treatment” value [20]?
Answer: Its value is 0.827.

Question: And the “HazardRatio, PMK2MC_Treatment” value [21]?
Answer: Its value is 1.134.

Question: What about the “HazardRatio, Treatment” value [21] of the same compound?
Answer: The value was 0.846.

Question: What about the “HazardRatio, PMK2MN_Treatment” value [22] of the same compound?
Answer: The value was 1.094.

Question: And the “HazardRatio, Treatment” value [22]?
Answer: The value was 0.815.

Question: What about the “HazardRatio, PMK2MN_Treatment” value [23] of the same compound?
Answer: Its value is 1.087.

Question: And the “HazardRatio, Treatment” value [23]?
Answer: The value was 0.816.

Question: And the “HazardRatio, PMK2MN_Treatment” value [24]?
Answer: The value was 0.911.

Question: And the “HazardRatio, Treatment” value [24]?
Answer: The value was 1.145.

Question: And the “HazardRatio, PMK2MN_Treatment” value [25]?
Answer: The value was 1.126.

Question: What about the “HazardRatio, Treatment” value [25] of the same compound?
Answer: Its value is 0.758.

Question: And the “HazardRatio, PMK2MN_Treatment” value [26]?
Answer: The value was 1.129.

Question: What about the “HazardRatio, Treatment” value [26] of the same compound?
Answer: The value was 0.775.

Question: What about the “HazardRatio, PMK2MN_Treatment” value [27] of the same compound?
Answer: The value was 1.107.

Question: What about the “HazardRatio, Treatment” value [27] of the same compound?
Answer: The value was 0.789.

Question: And the “HazardRatio, PMK2MCNs_Treatment” value [28]?
Answer: The value was 1.064.

Question: What about the “HazardRatio, Treatment” value [28] of the same compound?
Answer: Its value is 0.824.

Question: And the “HazardRatio, PMK2MCNs_Treatment” value [29]?
Answer: Its value is 1.056.

Question: And the “HazardRatio, Treatment” value [29]?
Answer: Its value is 0.829.

Question: And the “HazardRatio, PMK2MCNs_Treatment” value [30]?
Answer: The value was 0.915.

Question: And the “HazardRatio, Treatment” value [30]?
Answer: Its value is 1.174.

Question: What about the “HazardRatio, PMK2MCNs_Treatment” value [31] of the same compound?
Answer: The value was 1.078.

Question: And the “HazardRatio, Treatment” value [31]?
Answer: Its value is 0.772.

Question: And the “HazardRatio, PMK2MCNs_Treatment” value [32]?
Answer: Its value is 1.079.

Question: And the “HazardRatio, Treatment” value [32]?
Answer: Its value is 0.791.

Question: And the “HazardRatio, PMK2MCNs_Treatment” value [33]?
Answer: Its value is 1.062.

Question: What about the “HazardRatio, Treatment” value [33] of the same compound?
Answer: The value was 0.808.

Question: And the “HazardRatio, ERCC1_Treatment” value [34]?
Answer: Its value is 1.170.

Question: What about the “HazardRatio, Treatment” value [34] of the same compound?
Answer: Its value is 0.689.

Question: What about the “HazardRatio, ERCC1_Treatment” value (ERCC1 model, ADENOCARCINOMA, With selected variables) of the same compound?
Answer: The value was 1.151.
